Source: patent publication US12714706B2, “Methods of treating small cell lung cancer with lurbinectedin formulations” (PHARMA MAR, S.A., priority 2019, dated 2026)
≈ marks a conversion by molar mass, not a printed value. Read-outs that look alike come from different tables or passages of the source.

Assays:
physchem [1] = assay: physchem
[2] = Lurbinectedin plus irinotecan trial: pharmacokinetics of lurbinectedin, irinotecan and SN-38; conditions: combination: lurbinectedin 1.0-2.4 mg/m2 + irinotecan 75 mg/m2; n=39; mean (SD)
physchem [3] = conditions: pH 4, aqueous buffer
Experimental: (§1) Bulk solutions of phosphate, acetate, citrate, lactate and succinate buffers were prepared to determine maximum solubility of lurbinectedin.

[4] = lurbinectedin single agent 3.2 mg/m2 (ref); n=329; mean (SD); cited from earlier work
patients = conditions: previous analysis, dose based on body surface area; cited from earlier work
[5] = Maximum solubility of lurbinectedin in various buffers pH 4 (impact of buffer molarity)
Experimental: as §1

[6] = Maximum solubility of lurbinectedin in different molarities of lactic acid; type: physicochemical; conditions: lactic acid solution, aqueous buffer
Experimental: As such, in embodiments, a concentrated lurbinectedin solution is prepared in organic acid before addition of other excipients. In preferred embodiments, the organic acid has a pH less than 4, preferably less than 3.5, more preferably less than 3, or around 3. The maximum solubility of lurbinectedin was investigated in different molarities of the organic acid lactic acid. […] In a preferred embodiment, lurbinectedin is dissolved in an organic acid with a molarity of around 0.1M to 0.5M, preferably around 0.2M to 0.4M, more preferably around 0.3M organic acid. An exemplary molarity is 0.31M organic acid.

[7] = Sodium acetate pH 3, 25°C/60% RH
[8] = Sodium acetate pH 3, 14 d 25°C/60% RH
[9] = Sodium acetate pH 4, 25°C/60% RH
[10] = Sodium acetate pH 4, 14 d 25°C/60% RH
[11] = Sodium acetate pH 5, 25°C/60% RH
[12] = Sodium acetate pH 5, 14 d 25°C/60% RH
[13] = Sodium citrate pH 3, 25°C/60% RH
[14] = Sodium citrate pH 3, 14 d 25°C/60% RH
[15] = Sodium citrate pH 4, 25°C/60% RH
[16] = Sodium citrate pH 4, 14 d 25°C/60% RH
[17] = Sodium citrate pH 5, 25°C/60% RH
[18] = Sodium citrate pH 5, 14 d 25°C/60% RH
[19] = Sodium lactate pH 3, 25°C/60% RH
[20] = Sodium lactate pH 3, 14 d 25°C/60% RH
[21] = Sodium lactate pH 4, 25°C/60% RH
[22] = Sodium lactate pH 4, 14 d 25°C/60% RH
[23] = Sodium lactate pH 5, 25°C/60% RH
[24] = Sodium lactate pH 5, 14 d 25°C/60% RH
[25] = Sodium succinate pH 3, 25°C/60% RH
[26] = Sodium succinate pH 3, 14 d 25°C/60% RH
[27] = Sodium succinate pH 4, 25°C/60% RH
[28] = Sodium succinate pH 4, 14 d 25°C/60% RH
[29] = Sodium succinate pH 5, 25°C/60% RH
[30] = Sodium succinate pH 5, 14 d 25°C/60% RH

COc1ccc2[nH]c3c(c2c1)CCN[C@]31CS[C@@H]2c3c(OC(C)=O)c(C)c4c(c3[C@H](COC1=O)N1[C@@H]2[C@H]2c3c(cc(C)c(OC)c3O)C[C@@H]([C@@H]1O)N2C)OCO4 [lurbinectedin, Lurbinectedin]
solubility (physchem [1]; sodium acetate buffer, pH 3, aqueous buffer): 950 µg/mL (≈ 1210 µM)
solubility (physchem [1]; sodium acetate buffer, pH 4, aqueous buffer): 940 µg/mL (≈ 1200 µM)
solubility (physchem [1]; sodium acetate buffer, pH 5, aqueous buffer): 30 µg/mL (≈ 38.2 µM)
solubility (physchem [1]; sodium citrate buffer, pH 3, aqueous buffer): 940 µg/mL (≈ 1200 µM)
solubility (physchem [1]; sodium citrate buffer, pH 4, aqueous buffer): 930 µg/mL (≈ 1180 µM)
solubility (physchem [1]; sodium citrate buffer, pH 5, aqueous buffer): 500 µg/mL (≈ 637 µM)
solubility (physchem [1]; sodium lactate buffer, pH 3, aqueous buffer): 940 µg/mL (≈ 1200 µM)
solubility (physchem [1]; sodium lactate buffer, pH 4, aqueous buffer): 900 µg/mL (≈ 1150 µM)
solubility (physchem [1]; sodium lactate buffer, pH 5, aqueous buffer): 30 µg/mL (≈ 38.2 µM)
solubility (physchem [1]; sodium succinate buffer, pH 3, aqueous buffer): 960 µg/mL (≈ 1220 µM)
solubility (physchem [1]; sodium succinate buffer, pH 4, aqueous buffer): 970 µg/mL (≈ 1240 µM)
solubility (physchem [1]; sodium succinate buffer, pH 5, aqueous buffer): 40 µg/mL (≈ 51 µM)
Concentration t = 0 h (Sodium acetate pH 3): 950 µg/mL
Purity t = 0 h (Sodium acetate pH 3): 99.2%
Concentration t = 14 d [7]: 880 µg/mL
Purity t = 14 d [7]: 98.0%
Concentration decrease [8]: 6.8%
Degradation [8]: 1.2%
Concentration t = 0 h (Sodium acetate pH 4): 940 µg/mL
Purity t = 0 h (Sodium acetate pH 4): 99.2%
Concentration t = 14 d [9]: 890 µg/mL
Purity t = 14 d [9]: 98.0%
Concentration decrease [10]: 5.7%
Degradation [10]: 1.2%
Concentration t = 0 h (Sodium acetate pH 5): 30 µg/mL
Purity t = 0 h (Sodium acetate pH 5): 95.4%
Concentration t = 14 d [11]: 30 µg/mL
Purity t = 14 d [11]: 93.7%
Concentration decrease [12]: 8.2%
Degradation [12]: 1.7%
Concentration t = 0 h (Sodium citrate pH 3): 940 µg/mL
Purity t = 0 h (Sodium citrate pH 3): 99.4%
Concentration t = 14 d [13]: 920 µg/mL
Purity t = 14 d [13]: 97.9%
Concentration decrease [14]: 1.2%
Degradation [14]: 1.6%
Concentration t = 0 h (Sodium citrate pH 4): 930 µg/mL
Purity t = 0 h (Sodium citrate pH 4): 99.4%
Concentration t = 14 d [15]: 880 µg/mL
Purity t = 14 d [15]: 96.2%
Concentration decrease [16]: 6.0%
Degradation [16]: 3.2%
Concentration t = 0 h (Sodium citrate pH 5): 500 µg/mL
Purity t = 0 h (Sodium citrate pH 5): 99.3%
Concentration t = 14 d [17]: 110 µg/mL
Purity t = 14 d [17]: 95.0%
Concentration decrease [18]: 78.5%
Degradation [18]: 4.3%
Concentration t = 0 h (Sodium lactate pH 3): 940 µg/mL
Purity t = 0 h (Sodium lactate pH 3): 99.3%
Concentration t = 14 d [19]: 930 µg/mL
Purity t = 14 d [19]: 98.6%
Concentration decrease [20]: 0.9%
Degradation [20]: 0.7%
Concentration t = 0 h (Sodium lactate pH 4): 900 µg/mL
Purity t = 0 h (Sodium lactate pH 4): 99.3%
Concentration t = 14 d [21]: 870 µg/mL
Purity t = 14 d [21]: 97.8%
Concentration decrease [22]: 3.0%
Degradation [22]: 1.5%
Concentration t = 0 h (Sodium lactate pH 5): 30 µg/mL
Purity t = 0 h (Sodium lactate pH 5): 96.5%
Concentration t = 14 d [23]: 30 µg/mL
Purity t = 14 d [23]: 93.9%
Concentration decrease [24]: 6.9%
Degradation [24]: 2.6%
Concentration t = 0 h (Sodium succinate pH 3): 960 µg/mL
Purity t = 0 h (Sodium succinate pH 3): 99.3%
Concentration t = 14 d [25]: 930 µg/mL
Purity t = 14 d [25]: 97.7%
Concentration decrease [26]: 3.2%
Degradation [26]: 1.5%
Concentration t = 0 h (Sodium succinate pH 4): 970 µg/mL
Purity t = 0 h (Sodium succinate pH 4): 99.2%
Concentration t = 14 d [27]: 890 µg/mL
Purity t = 14 d [27]: 96.8%
Concentration decrease [28]: 7.6%
Degradation [28]: 2.4%
Concentration t = 0 h (Sodium succinate pH 5): 40 µg/mL
Purity t = 0 h (Sodium succinate pH 5): 95.9%
Concentration t = 14 d [29]: 30 µg/mL
Purity t = 14 d [29]: 94.2%
Concentration decrease [30]: 8.1%
Degradation [30]: 1.8%
HL [2]: 44.2 (22.4) h
solubility (physchem [3]; monopotassium phosphate buffer): 210 µg/mL (≈ 268 µM)
solubility (physchem [3]; sodium acetate buffer): 940 µg/mL (≈ 1200 µM)
solubility (physchem [3]; sodium citrate buffer): 930 µg/mL (≈ 1180 µM)
solubility (physchem [3]; sodium lactate buffer): 900 µg/mL (≈ 1150 µM)
solubility (physchem [3]; sodium succinate buffer): 970 µg/mL (≈ 1240 µM)
CL [4]: 12.4 (7.6) L/h
Cmax [4]: 127.5 (100.2) ug/L
HL [4]: 42.6 (38.4) h
Vz [4]: 664.7 (460.3) L
Incidence of febrile neutropenia (patients): lower than 10%
Lurbinectedin maximum solubility ([5]; Monopotassium phosphate buffer pH 4, 0.06-01 M): 320 µg/mL
Lurbinectedin maximum solubility ([5]; Sodium acetate buffer pH 4, 0.06-01 M): 860 µg/mL
Lurbinectedin maximum solubility ([5]; Sodium lactate buffer pH 4, 0.06-01 M): 920 µg/mL
solubility ([6]; 0.05M lactic acid): 7200 µg/mL (≈ 9170 µM)
solubility ([6]; 0.5M lactic acid): 90400 µg/mL (≈ 115000 µM)
